Experimental data reported in patent publication US20260077051A1, “COMPOUNDS FOR THE DEGRADATION OF EGFR KINASE” (BeOne Medicines I GmbH, priority 2023, published 2026).
Values belong to the compound of their own block, whether it stands above or below them.

What was measured:
[1] = molecular target: T1, EGFR L858R (BaF3-L858R cells) (Homo sapiens, UniProt P00533, L858R); assay: EGFR degradation in BaF3-L858R cells (HTRF assay); assay type: cell-based; conditions: 16 h treatment; for DC50: IC50(DC50) of EGFR degradation; for Dmax: maximum percentage of inhibition (degradation)
T1 construct: host or cells: BaF3
Method: BaF3-L858R (abbv. L858R) cell were purchased from Kangyuan Bochuang Biotechnology (Beijing) Co., Ltd.
(§1) H1975-#8 and BaF3-L858R cells are treated with compounds diluted in 0.1% DMSO cell culture medium on day 2, incubate for 16 h, 37° C., 5% CO2. the final concentration of compounds in all assay is start with 10 uM, 5-fold dilution, total 8 doses were included.
(§2) After 16 h treatment, for H1975-#8 cells, add 100 ul HTRF 1× lysis buffer to each well; for BaF3-L858R cells, add 20 μl 4× lysis buffer to each well; seal the plate and incubate 1 hour at room temperature on a plate shaker; Once the cells are lysed, 16 μL of cell lysate are transferred to a PE 384-well HTRF detection plate; 4 μL of pre-mixed HTRF antibodies are added to each well; Cover the plate with a plate sealer, spin 1000 rpm for 1 min, Incubate overnight at room temperature; Read on BMG PheraStar with HTRF protocol (337 nm-665 nm-620 nm).
(§3) The inhibition (degradation) percentage of the compound was calculated by the following equation:
(§4) High control=Cell group with added DMSO and without compound, indicating microplate readings without EGFR degradation;
(§5) Dmax is the maximum percentage of inhibition (degradation).
(§6) The IC50(DC50) value of a compound can be obtained by fitting the following equation
(§7) Wherein, X and Y are known values, and IC50, Hillslope, Top and Bottom are the parameters obtained by fitting with software. Y is the inhibition percentage (calculated from the equation), X is the concentration of the compound; IC50 is the concentration of the compound when the 50% inhibition is reached. The smaller the IC50 value is, the stronger the inhibitory ability of the compound is. Vice versa, the higher the IC50 value is, the weaker the ability the inhibitory ability of the compound is; Hillslope represents the slope of the fitted curve, generally around 1*; Bottom represents the minimum value of the curve obtained by data fitting, which is generally 0%±20%; Top represents the maximum value of the curve obtained by data fitting, which is generally 100%±20%. The experimental data were fitted by calculating and analyzing with Dotmatics data analysis software.

[2] = molecular target: T2, EGFR-L858R/C797S (H1975-clone #8 cells) (Homo sapiens, UniProt P00533, C797S/L858R); assay: EGFR degradation in H1975-clone#8 (L858R/C797S) cells (HTRF assay); assay type: cell-based; conditions: 16 h treatment; for DC50: IC50(DC50) of EGFR degradation; for Dmax: maximum percentage of inhibition (degradation)
T2 construct: expressed in transfected cells; host or cells: H1975 (lentiviral transduction, endogenous EGFR knocked out, single clone #8)
Method: H1975-clone #8 (L858R/C797S): EGFR-L858R/C797S were stably expressed in H1975 cell lines by lentivirus-mediated over-expression, respectively. The EGFR over-expressed cells then underwent knockout, in which the EGFR targeting sgRNA was designed to only target the endogenous EGFR copies and preserve the exogenous EGFR copies. Followed by the knockout, the edited H1975 cells were seeded in 96 well plates at the concentration of […], cultured for about 2 weeks to allow single clones formation. The formed clones were screened by DNA sequencing and whole exon sequencing analysis for the desired edition. H1975-clone #8 were finally confirmed as homozygous L858R/C797S EGFR clones.
as §1, §2, §3, §4, §5, §6, §7

T2 sequence (P00533 25-1210 C797S/L858R): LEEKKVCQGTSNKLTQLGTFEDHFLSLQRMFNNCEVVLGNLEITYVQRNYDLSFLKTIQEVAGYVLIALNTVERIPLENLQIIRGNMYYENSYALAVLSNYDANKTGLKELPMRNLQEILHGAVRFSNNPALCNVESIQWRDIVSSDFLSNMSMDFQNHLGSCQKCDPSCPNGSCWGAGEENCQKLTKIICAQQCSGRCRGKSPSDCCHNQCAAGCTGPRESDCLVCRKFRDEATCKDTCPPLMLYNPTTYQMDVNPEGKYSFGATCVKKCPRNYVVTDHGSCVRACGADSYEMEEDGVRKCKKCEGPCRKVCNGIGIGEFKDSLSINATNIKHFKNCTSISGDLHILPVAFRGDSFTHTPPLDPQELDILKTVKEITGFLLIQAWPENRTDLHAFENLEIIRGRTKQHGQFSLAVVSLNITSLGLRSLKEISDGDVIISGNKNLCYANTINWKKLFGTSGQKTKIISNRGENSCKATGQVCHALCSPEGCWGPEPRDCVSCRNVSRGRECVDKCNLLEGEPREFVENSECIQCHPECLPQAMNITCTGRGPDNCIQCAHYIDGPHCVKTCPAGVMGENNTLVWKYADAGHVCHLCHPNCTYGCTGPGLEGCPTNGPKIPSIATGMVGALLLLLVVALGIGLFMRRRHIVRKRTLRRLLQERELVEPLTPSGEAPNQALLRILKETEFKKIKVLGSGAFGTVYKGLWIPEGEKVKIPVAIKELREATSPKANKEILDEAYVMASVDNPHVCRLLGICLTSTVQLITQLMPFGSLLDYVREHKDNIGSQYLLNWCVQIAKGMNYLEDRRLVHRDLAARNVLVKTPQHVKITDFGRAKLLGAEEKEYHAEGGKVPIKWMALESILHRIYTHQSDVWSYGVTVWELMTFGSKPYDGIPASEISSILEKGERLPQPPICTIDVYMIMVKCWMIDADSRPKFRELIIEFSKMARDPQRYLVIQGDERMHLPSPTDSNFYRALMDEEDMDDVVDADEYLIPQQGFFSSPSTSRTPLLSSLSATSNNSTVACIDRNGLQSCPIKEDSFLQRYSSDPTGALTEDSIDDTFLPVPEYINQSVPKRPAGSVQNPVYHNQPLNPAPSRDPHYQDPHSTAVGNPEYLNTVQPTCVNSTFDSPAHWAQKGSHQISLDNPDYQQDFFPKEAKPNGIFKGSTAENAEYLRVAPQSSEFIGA
T1 sequence (P00533 25-1210 L858R): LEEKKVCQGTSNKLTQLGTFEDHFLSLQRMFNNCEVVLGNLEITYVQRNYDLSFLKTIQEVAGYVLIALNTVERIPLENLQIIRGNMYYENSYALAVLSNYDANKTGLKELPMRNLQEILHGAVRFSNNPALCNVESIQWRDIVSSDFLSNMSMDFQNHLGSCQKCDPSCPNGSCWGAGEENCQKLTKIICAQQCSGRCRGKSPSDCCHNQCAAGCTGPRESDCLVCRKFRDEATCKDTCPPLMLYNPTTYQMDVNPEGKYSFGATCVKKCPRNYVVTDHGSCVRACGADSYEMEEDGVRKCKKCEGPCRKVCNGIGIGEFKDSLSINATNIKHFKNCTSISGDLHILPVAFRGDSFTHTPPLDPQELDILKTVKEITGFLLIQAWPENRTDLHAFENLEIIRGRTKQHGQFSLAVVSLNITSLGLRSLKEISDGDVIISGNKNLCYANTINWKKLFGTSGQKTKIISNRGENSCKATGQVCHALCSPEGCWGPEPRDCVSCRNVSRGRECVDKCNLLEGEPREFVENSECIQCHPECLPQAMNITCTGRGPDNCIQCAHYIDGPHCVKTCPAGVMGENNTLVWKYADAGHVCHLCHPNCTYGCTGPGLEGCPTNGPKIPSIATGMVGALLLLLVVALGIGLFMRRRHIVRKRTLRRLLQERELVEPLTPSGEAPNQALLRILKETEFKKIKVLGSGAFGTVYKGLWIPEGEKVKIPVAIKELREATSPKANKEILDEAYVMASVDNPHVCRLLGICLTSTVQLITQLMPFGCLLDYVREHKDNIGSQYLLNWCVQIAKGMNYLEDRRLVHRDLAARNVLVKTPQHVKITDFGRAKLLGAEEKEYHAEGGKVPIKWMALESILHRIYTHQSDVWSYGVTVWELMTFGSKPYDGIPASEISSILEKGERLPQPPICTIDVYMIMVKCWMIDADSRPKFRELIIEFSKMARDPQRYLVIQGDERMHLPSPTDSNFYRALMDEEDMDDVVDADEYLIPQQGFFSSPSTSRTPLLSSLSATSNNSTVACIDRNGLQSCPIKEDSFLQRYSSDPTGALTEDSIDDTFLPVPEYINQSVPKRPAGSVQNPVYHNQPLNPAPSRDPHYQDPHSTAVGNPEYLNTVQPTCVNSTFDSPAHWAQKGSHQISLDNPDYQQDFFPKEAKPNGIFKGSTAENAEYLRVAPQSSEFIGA

Structure (SMILES): Cc1cc2cc(n1)-c1cnn(C)c1OCC[C@H]1C[C@@H]1CN1/C(=N/C2=O)Nc2ccc(N3CCN(C4CCN(c5ccc(C6CCC(=O)NC6=O)nc5C)CC4)C[C@@H]3C)cc21 (stereo partly drawn) [Example 3, 3-(5-(4-((S)-4-((7^1S,7^2R,E)-1^1,2^6-dimethyl-3-oxo-5^2,5^3-dihydro-1^1H,5^1H-10-oxa-4-aza-5 (2,1)-benzo[d]imidazola-2 (2,4)-pyridina-1 (4,5)-pyrazola-7 (1,2)-cyclopropanacyclodecaphane-5-yl)-3-methylpiperazin-1-yl)piperidin-1-yl)-6-methylpyridin-2-yl)piperidine-2,6-dione]
- DC50 [1]: 11.6 nM
- Dmax [1]: 85.5%
- DC50 [2]: 3.1 nM
- Dmax [2]: 65.2%

Structure (SMILES): Cc1cc2cc(n1)-c1cnn(C)c1OCC[C@H]1C[C@@H]1CN1/C(=N/C2=O)Nc2ccc(N3CCN([C@H]4CCN(c5cnc(C6CCC(=O)NC6=O)cc5C)C[C@H]4F)CC3)cc21 (stereo partly drawn) [Example 11, 3-(5-((3R,4S)-4-(4-((7^1S,7^2R,E)-1^1,2^6-dimethyl-3-oxo-5^2,5^3-dihydro-1^1H,5^1H-10-oxa-4-aza-5 (2,1)-benzo[d]imidazola-2 (2,4)-pyridina-1 (4,5)-pyrazola-7 (1,2)-cyclopropanacyclodecaphane-5^6-yl)piperazin-1-yl)-3-fluoropiperidin-1-yl)-4-methylpyridin-2-yl)piperidine-2,6-dione]
- DC50 [1]: 7.62 nM
- Dmax [1]: 71.2%
- DC50 [2]: 1.44 nM
- Dmax [2]: 51.8%

Structure (SMILES): Cc1cc2cc(n1)-c1cnn(C)c1OCC[C@H]1C[C@@H]1CN1/C(=N/C2=O)Nc2ccc(N3CCN([C@@H]4CCN(c5cnc(C6CCC(=O)NC6=O)cc5C)C[C@@H]4F)CC3)cc21 (stereo partly drawn) [Example 12, 3-(5-((3S,4R)-4-(4-((7^1S,7^2R,E)-1^1,2^6-dimethyl-3-oxo-5^2,5^3-dihydro-1^1H,5^1H-10-oxa-4-aza-5 (2,1)-benzo[d]imidazola-2 (2,4)-pyridina-1 (4,5)-pyrazola-7 (1,2)-cyclopropanacyclodecaphane-5^6-yl)piperazin-1-yl)-3-fluoropiperidin-1-yl)-4-methylpyridin-2-yl)piperidine-2,6-dione]
- DC50 [1]: 18.4 nM
- Dmax [1]: 73.6%
- DC50 [2]: 16 nM
- Dmax [2]: 54.4%

Structure (SMILES): Cc1cc2cc(n1)-c1cnn(C)c1OCC[C@]1(C)C[C@H]1CN1/C(=N/C2=O)Nc2ccc(N3CCN(C4CCN(c5cc(F)c([C@H]6CCC(=O)NC6=O)c(F)c5)CC4)CC3)cc21 [Example 17, (R)-3-(2,6-difluoro-4-(4-(4-((7^1R,7^2S,E)-1^1,2^6,7^2-trimethyl-3-oxo-5^2,5^3-dihydro-1^1H,5^1H-10-oxa-4-aza-5 (2,1)-benzo[d]imidazola-2 (2,4)-pyridina-1 (4,5)-pyrazola-7 (1,2)-cyclopropanacyclodecaphane-5^6-yl)piperazin-1-yl)piperidin-1-yl)phenyl)piperidine-2,6-dione]
- DC50 [1]: 2.32 nM
- Dmax [1]: 84.1%
- DC50 [2]: 1.6 nM
- Dmax [2]: 68.7%

Structure (SMILES): Cc1cc2cc(n1)-c1cnn(C)c1OCC[C@]1(C)C[C@H]1CN1/C(=N/C2=O)Nc2ccc(N3CCN(C4CCN(c5ccc(C6CCC(=O)NC6=O)nc5C)CC4)CC3)cc21 (some centres unmarked) [Example 19, 3-(6-methyl-5-(4-(4-((7^1R,7^2S,E)-1^1,2^6,7^2-trimethyl-3-oxo-5^2,5^3-dihydro-1^1H,5^1H-10-oxa-4-aza-5 (2,1)-benzo[d]imidazola-2 (2,4)-pyridina-1 (4,5)-pyrazola-7 (1,2)-cyclopropanacyclodecaphane-5^6-yl)piperazin-1-yl)piperidin-1-yl)pyridin-2-yl)piperidine-2,6-dione]
- DC50 [1]: 1.93 nM
- Dmax [1]: 94.5%
- DC50 [2]: 3 nM
- Dmax [2]: 75%

Next, values leading:

- DC50 [1]: 6.97 nM
- Dmax [1]: 91.3%
- DC50 [2]: > 10000 nM
- Dmax [2]: 31.2%
Structure (SMILES): Cc1cc2cc(n1)-c1cnn(C)c1OCC[C@H]1C[C@@H]1CN1/C(=N/C2=O)Nc2ccc(N3CCN(C4CN(C5CCN(c6cc(F)c([C@H]7CCC(=O)NC7=O)c(F)c6)CC5)C4)CC3)cc21 [Example 10, (R)-3-(4-(4-(3-(4-((7^1S,7^2R,E)-1^1,2^6-dimethyl-3-oxo-5^2,5^3-dihydro-1^1H,5^1H-10-oxa-4-aza-5 (2,1)-benzo[d]imidazola-2 (2,4)-pyridina-1 (4,5)-pyrazola-7 (1,2)-cyclopropanacyclodecaphane-5^6-yl)piperazin-1-yl)azetidin-1-yl)piperidin-1-yl)-2,6-difluorophenyl)piperidine-2,6-dione]

- DC50 [1]: 9.37 nM
- Dmax [1]: 84.4%
- DC50 [2]: 5.8 nM
- Dmax [2]: 51.4%
Structure (SMILES): CCc1nc(C2CCC(=O)NC2=O)ccc1N1CCC(N2CCN(c3ccc4c(c3)N3C[C@H]5C[C@@H]5CCOc5c(cnn5C)-c5cc(cc(C)n5)C(=O)/N=C/3N4)CC2)CC1 (some centres unmarked) [Example 14, 3-(5-(4-(4-4((7^1S,7^2R,E)-1^1,2^6-dimethyl-3-oxo-5^2,5^3-dihydro-1^1H,5^1H-10-oxa-4-aza-5 (2,1)-benzo[d]imidazola-2 (2,4)-pyridina-1 (4,5)-pyrazola-7 (1,2)-cyclopropanacyclodecaphane-5^6-yl)piperazin-1-yl)piperidin-1-yl)-6-ethylpyridin-2-yl)piperidine-2,6-dione]

- DC50 [1]: 4.48 nM
- Dmax [1]: 82.5%
- DC50 [2]: 4.96 nM
- Dmax [2]: 46.1%
Structure (SMILES): Cc1cc2cc(n1)-c1cnn(C)c1OCC[C@H]1C[C@@H]1CN1/C(=N/C2=O)Nc2ccc(N3CCN(C4CCN(c5c(C)cc(C6CCC(=O)NC6=O)nc5C)CC4)CC3)cc21 (some centres unmarked) [Example 15, 3-(5-(4-(4-((7^1S,7^2R,E)-1^1,2^6-dimethyl-3-oxo-5^2,5^3-dihydro-1^1H,5^1H-10-oxa-4-aza-5 (2,1)-benzo[d]imidazola-2 (2,4)-pyridina-1 (4,5)-pyrazola-7 (1,2)-cyclopropanacyclodecaphane-5^6-yl)piperazin-1-yl)piperidin-1-yl)-4,6-dimethylpyridin-2-yl)piperidine-2,6-dione]

- DC50 [1]: 18 nM
- Dmax [1]: 76.4%
- DC50 [2]: 7.82 nM
- Dmax [2]: 73.3%
Structure (SMILES): Cc1cc2cc(n1)-c1cnn(C)c1OCC[C@H]1C[C@@H]1CN1/C(=N/C2=O)Nc2ccc(N3CCN(C4CCN(c5cc(F)c(C6CCC(=O)NC6=O)nc5C)CC4)CC3)cc21 (some centres unmarked) [Example 16, 3-(5-(4-(4-((7^1S,7^2R,E)-1^1,2^6-dimethyl-3-oxo-5^2,5^3-dihydro-1^1H,5^1H-10-oxa-4-aza-5 (2,1)-benzo[d]imidazola-2 (2,4)-pyridina-1 (4,5)-pyrazola-7 (1,2)-cyclopropanacyclodecaphane-5^6-yl)piperazin-1-yl)piperidin-1-yl)-3-fluoro-6-methylpyridin-2-yl)piperidine-2,6-dione]

- DC50 [1]: 6.69 nM
- Dmax [1]: 84.6%
- DC50 [2]: 5.12 nM
- Dmax [2]: 66.3%
Structure (SMILES): Cc1cc2cc(n1)-c1cnn(C)c1OCC[C@H]1C[C@@H]1CN1/C(=N/C2=O)Nc2ccc(N3CCN(C4CCN(c5cccc6c5C(C)(C)C(=O)N6C5CCC(=O)NC5=O)CC4)CC3)cc21 (some centres unmarked) [Example 18, 3-(4-(4-(4-((7^1S,7^2R,E)-1^1,2^6-dimethyl-3-oxo-5^2,5^3-dihydro-1^1H,5^1H-10-oxa-4-aza-5 (2,1)-benzo[d]imidazola-2 (2,4)-pyridina-1 (4,5)-pyrazola-7 (1,2)-cyclopropanacyclodecaphane-5^6-yl)piperazin-1-yl)piperidin-1-yl)-3,3-dimethyl-2-oxoindolin-1-yl)piperidine-2,6-dione]

- DC50 [1]: 12.4 nM
- Dmax [1]: 86.8%
- DC50 [2]: 0.603 nM
- Dmax [2]: 59.1%
Structure (SMILES): Cc1cc2cc(n1)-c1cnn(C)c1OCC[C@H]1C[C@@H]1CN1/C(=N/C2=O)Nc2ccc(N3CCN(C4CN(C5CCN(c6ccc(C7CCC(=O)NC7=O)nc6C)CC5)C4)CC3)cc21 (some centres unmarked) [Example 20, 3-(5-(4-(3-(4-((7^1S,7^2R,E)-1^1,2^6-dimethyl-3-oxo-5^2,5^3-dihydro-1^1H,5^1H-10-oxa-4-aza-5 (2,1)-benzo[d]imidazola-2 (2,4)-pyridina-1 (4,5)-pyrazola-7 (1,2)-cyclopropanacyclodecaphane-5^6-yl)piperazin-1-yl)azetidin-1-yl)piperidin-1-yl)-6-methylpyridin-2-yl)piperidine-2,6-dione]
